Test results reported in US9802949B2, “Fused ring compounds as hepatitis C virus inhibitors, pharmaceutical compositions and uses thereof” (SUNSHINE LAKE PHARMA CO., LTD., priority 2012, dated 2017).

How the values were obtained:
[1] = test system: HCV GT1a replicon; assay: HCV replicon assay (Huh-7 cells stably transfected with HCV GT1a replicon; luciferase or NEO gene qPCR readout); type: cell-based; details: Hepatitis C virus, HCV 1a genotype replicon, 72 hours
Protocol: (§1) HCV Replicon System was utilized as a screening model in the present disclosure to evaluate the antivirus effects of the compounds disclosed herein against HCV. HCV Replicon assay was first described in Science, 1999, 285 (5424), 110-3. […] To determine the potential anti-HCV effects of the test compounds, luciferase assay and antibiotic Neomycin resistance gene were tested according to the method described in Science. 1999 Jul. 2; 285 (5424), 110-3 and J. Virol. 2003 March; 77 (5), 3007-19.
(§2) In a word, the compounds disclosed herein were tested by using human hepatic carcinoma cell line Huh-7 which is transfected stably with HCV GT1a, GT1b or GT2a replicon respectively, and resistant cells of Y93H, L31F, P32L or I302V and wild-type cells HCV 1b. HCV Replicon System disclosed herein contains G418 resistance gene NEO and Luciferase Reporter Gene, and the level of HCV replication in host cells is detected and characterized by the expression level of the NEO gene or Luciferase Reporter Gene, so the effects of the compounds herein inhibit HCV replication can be evaluated in this system. In this article, a real-time quantitative polymerase chain reaction (qPCR) method was used to detect NEO gene expression level, and chemiluminescence method was used to test Luciferase Reporter Gene expression level.
(§3) 1. Test Method for Measuring EC50 of the Compounds Based on Luciferase Assay.
(§4) The Huh-7 cells transfected with HCV replicons system were seeded into 96-well plates (8,000 cells in 125 μL/well) respectively; each test compound was diluted to desired concentration using 5-fold serial dilutions protocol, 10 doses in duplicate, and added to wells with POD™ 810 Plate Assembler. The plates were incubated in a CO2 incubator for 72 hours; after that, 40 μL of Luciferase assay substrate (Promega Bright-Glo) was added to each well, and detected by a chemiluminescence detection system (Topcount Microplate Scintillation and Luminescence Counter) 5 minutes later; the EC50 (half-maximal effective concentration, concentration for 50% of maximal effect) values of test compounds were analyzed by GraphPad Prism software. In this paper, experiments were repeated twice and set the wells without compounds as negative control.
(§5) 2. Test Method for Measuring EC50 of the Compounds by Detecting Antibiotic G418 Resistance Gene NEO Gene.
(§6) The Huh-7 cells transfected with HCV replicons system were seeded into 96-well plates (8,000 cells in 125 μL/well) respectively; each test compound was diluted to desired concentration using 5-fold serial dilutions protocol, 10 doses in duplicate, and added to each well with POD™ 810 Plate Assembler; the cells were incubated in a CO2 incubator for 72 hours; and detected the expression level of the NEO gene expression with real-time quantitative PCR later; the EC50 (half-maximal effective concentration, concentration for 50% of maximal effect) values of test compounds were analyzed by GraphPad Prism software, respectively. In this paper, experiments were repeated twice and set the wells without compounds as negative control.

[2] = test system: HCV GT1b replicon; assay: HCV replicon assay (Huh-7 cells stably transfected with HCV GT1b replicon; luciferase or NEO gene qPCR readout); type: cell-based; details: Hepatitis C virus, HCV 1b genotype replicon, 72 hours
Protocol: as §1, §2, §3, §4, §5, §6

In the case of `COC(=O)N[C@H](C(=O)N1CCC[C@H]1c1ncc(-c2ccc(-c3ncc(-c4ccc5nc([C@@H]6CCCN6C(=O)[C@@H](NC(=O)OC)C(C)C)[nH]c5c4)c4c3C3CCC3C4)cc2)[nH]1)C(C)C` (stereo partly shown) [Example 25], the EC50 [1] is reported as 65 pM and the EC50 [2] is reported as 32 pM.

Compound `COC(=O)N[C@H](C(=O)N1CCC[C@H]1c1ncc(-c2ccc(-c3ccc(-c4cnc([C@@H]5CCCN5C(=O)[C@@H](NC(=O)OC)C(C)C)[nH]4)c4c3C3CCC3C4)cc2)[nH]1)C(C)C` (stereo partly shown) [Example 1] has an EC50 [1] of 605 pM and an EC50 [2] of 5 pM.

`COC(=O)N[C@H](C(=O)N1CC2(C[C@H]1c1ncc(-c3ccc(-c4ccc(-c5ccc6nc([C@@H]7CCCN7C(=O)[C@@H](NC(=O)OC)C(C)C)[nH]c6c5)c5c4C4CCC4C5)cc3)[nH]1)OCCO2)C(C)C` (stereo partly shown) [Example 20] showed an EC50 [1] of 429 pM and an EC50 [2] of 36 pM.

For `COC(=O)N[C@H](C(=O)N1CCC[C@H]1c1ncc(-c2ccc(-c3ccc(-c4ccc5nc([C@@H]6CCCN6C(=O)[C@@H](NC(=O)OC)C(C)C)[nH]c5c4)c4c3C3CCC3C4)cc2)[nH]1)C(C)C` (stereo partly shown) [Example 4], the EC50 [1] was 60 pM and the EC50 [2] was 20 pM.

For `CC(C)[C@H](NC(=O)OC(C)(C)C)C(=O)N1CCC[C@H]1c1ncc(-c2ccc(-c3ccc(-c4cnc([C@@H]5CCCN5C(=O)[C@@H](NC(=O)OC(C)(C)C)C(C)C)[nH]4)c4c3C3CCC3C4)cc2)[nH]1` (stereo partly shown) [Example 10], the EC50 [1] was 4330 pM and the EC50 [2] was 927 pM.

Compound `COC(=O)N[C@H](C(=O)N1CC2(CC2)C[C@H]1c1ncc(-c2ccc(-c3ccc(-c4ccc5nc([C@@H]6CC7(CC7)CN6C(=O)[C@@H](NC(=O)OC)C(C)C)[nH]c5c4)c4c3C3CCC3C4)cc2)[nH]1)C(C)C` (stereo partly shown) [Example 17] has an EC50 [1] of 62 pM and an EC50 [2] of 78 pM.

With `COC(=O)N[C@H](C(=O)N1CCC[C@H]1c1ncc(-c2ccc(-c3sc(-c4ccc5nc([C@@H]6CCCN6C(=O)[C@@H](NC(=O)OC)C(C)C)[nH]c5c4)c4c3C3CCC3C4)cc2)[nH]1)C(C)C` (stereo partly shown) [Example 26] the EC50 [1] was 832 pM and the EC50 [2] was 48 pM.

Work on `COC(=O)N[C@H](C(=O)N1C[C@@H](F)C[C@H]1c1ncc(-c2ccc(-c3ccc(-c4ccc5nc([C@@H]6C[C@H](F)CN6C(=O)[C@@H](NC(=O)OC)C(C)C)[nH]c5c4)c4c3C3CCC3C4)cc2)[nH]1)C(C)C` (stereo partly shown) [Example 9] yielded an EC50 [1] of 35 pM and an EC50 [2] of 14 pM.

In the case of `COC(=O)N[C@H](C(=O)N1CCC[C@H]1c1ncc(-c2ccc(-c3ccc(-c4ccc5nc([C@@H]6CCCN6C(=O)[C@@H](NC(=O)OC)C(C)C)[nH]c5c4)c4c3CC3CCC43)s2)[nH]1)C(C)C` (stereo partly shown) [Example 7], the EC50 [1] is reported as 93 pM and the EC50 [2] is reported as 53 pM.

In the case of `COC(=O)N[C@H](C(=O)N1C[C@@H](C)C[C@H]1c1ncc(-c2ccc(-c3ccc(-c4ccc5nc([C@@H]6C[C@H](C)CN6C(=O)[C@@H](NC(=O)OC)C(C)C)[nH]c5c4)c4c3C3CCC3C4)cc2)[nH]1)C(C)C` (stereo partly shown) [Example 14], the EC50 [1] is reported as 3 pM and the EC50 [2] is reported as 1 pM.

Work on `COC(=O)N[C@H](C(=O)N1CC(C)(C)C[C@H]1c1ncc(-c2ccc(-c3ccc(-c4ccc5nc([C@@H]6CC(C)(C)CN6C(=O)[C@@H](NC(=O)OC)C(C)C)[nH]c5c4)c4c3C3CCC3C4)cc2)[nH]1)C(C)C` (stereo partly shown) [Example 15] yielded an EC50 [1] of 381 pM and an EC50 [2] of 105 pM.
